Data as given in patent US20200055883A1, “CYCLIC DI-NUCLEOTIDES DERIVATIVE FOR THE TREATMENT OF CANCER” (Eisai R&D Management Co., Ltd., priority 2017, published 2020).
Read-outs that look alike come from different tables or passages of the source.

Key:
AQ Human STING = AQ Human STING (Homo sapiens, UniProt Q86WV6, G230A/H232R/R293Q); experiment: STING variant specific reporter assay, AQ-STING (THP1-Dual KO-STING cells); details: ammonium salt form of each compound
Human STING HAQ = Human STING HAQ (Homo sapiens, UniProt Q86WV6, G230A/H232R/R293Q/R71H); experiment: HAQ STING agonist activity reporter assay (THP1-Dual cells)
REF Human STING = REF Human STING (Homo sapiens, UniProt Q86WV6); experiment: STING variant specific reporter assay, REF-STING (THP1-Dual KO-STING cells)
WT Human STING = WT Human STING (Homo sapiens, UniProt Q86WV6, H232R); experiment: STING variant specific reporter assay, WT-STING (THP1-Dual KO-STING cells); details: Human STING EC50 (μM) WT, ammonium salt form of each compound
human PBMC [1] = experiment: Ex vivo human PBMC stimulation assay, IFNβ protein; format: cell-based; details: 0.1, 1, 10 uM, 24 hours
Experimental: After 24 hours of incubation the tubes were centrifuged at 1400 rpm for 5 minutes and supernatants were harvested. Supernatant were stored in −80° C. for subsequent IFNβ measurement. IFNβ measurement was done using Human IFN-β Base Kit (Meso Scale Diagnostics cat # K151ADA) and protocol provided by manufacturer was used. IFN-beta estimation was done by reading assay plate at MESO SECTOR Imager 2400 and using MSD Discovery Workbench 4.0 program. After 24 hours IFNβ protein was analyzed.
Results shown in Table 10 reflect an average of measurements conducted using five different donors.

[2] = test system: hepatocytes of Sprague Dawley rat; experiment: Hepatocyte incubation, metabolite identification, rat; format: in vitro ADME; details: LC-MS/MS
From the text: (§1) Cryopreserved pooled hepatocytes were purchased from ThermoFisher Scientific (Waltham, Mass.), Xenotech, LLC (Kansas City, Kans.) and In Vitro ADMET Laboratories (Columbia, Md.), and the appropriate media were purchased from In Vitro ADMET Laboratories (Columbia, Md.) and Life Technologies (Carlsbad, Calif.). AOPI staining solution and phosphate buffer were obtained from Corning Life Sciences (Tewksbury, Mass.) and Nexcelom Bioscience (Lawrence, Mass.), respectively. All chemicals, reagents, and solvents used in analysis were of either analytical or HPLC grade.
(§2) Prior to incubations, the cryopreserved hepatocytes were thawed in a water bath at 37° C. One tube of cryopreserved hepatocytes was added to each 50-mL conical tube of cryopreserved hepatocyte recovery medium (UCRM) obtained from In Vitro ADMET Laboratories (Columbia, Md.). The cells were spun in a Beckman centrifuge (Brea, Calif.) with a GH 3.8 rotor at 740 rpm for 10 minutes at room temperature 4° C. […] The solution was gently mixed and cells were counted using a Cellometer (Nexcelom, Lawrence, Mass.). […]
(§3) The LC-MS/MS system was composed of a Shimadzu HPLC and an AB-SCIEX TripleTOF 5600 hybrid quadrupole and TOF mass spectrometer (Framingham, Mass.). […] The samples obtained from incubations with hepatocytes were analyzed under both negative and positive scan modes. […]

[3] = test system: hepatocytes of CD-1 mouse; experiment: Hepatocyte incubation, metabolite identification, mouse; format: in vitro ADME; details: LC-MS/MS
From the text: as §1, §2, §3

hepatocytes of human = experiment: Hepatocyte incubation, metabolite identification, human; format: in vitro ADME; details: LC-MS/MS
From the text: as §1, §2, §3

[4] = test system: hepatocytes of Beagle dog; experiment: Hepatocyte incubation, metabolite identification, dog; format: in vitro ADME; details: LC-MS/MS
From the text: as §1, §2, §3

human PBMC [5] = experiment: Ex vivo human PBMC stimulation assay, IFNβ mRNA (qPCR); details: 0.1-10 μM, 3 hr and 24 hr
[6] = test system: hepatocytes of Cynomolgus monkey; experiment: Hepatocyte incubation, metabolite identification, monkey; format: in vitro ADME; details: LC-MS/MS
From the text: as §1, §2, §3

CT26 tumor = experiment: CT26 dual tumor model; details: all the lower doses (0.6-5 mg/kg), I.T., single dose
[7] = Human STING EC50 (μM) AQ, Table 5
[8] = Human STING EC50 (μM) HAQ, Table 5, ammonium salt form of each compound, 20 hrs
[9] = Human STING EC50 (μM) HAQ, Table 4, ammonium salt form of each compound, 20 hrs
[10] = Human STING EC50 (μM) AQ, Table 4
[11] = hSTING EC50 (μM) HAQ, Table 6, ammonium salt form, except Compounds 26, 33, 34 tested as bis-TEA salts
[12] = hSTING EC50 (μM) HAQ, Table 8, ammonium salt form of each compound

AQ Human STING, sequence (Q86WV6 whole entry G230A/H232R/R293Q): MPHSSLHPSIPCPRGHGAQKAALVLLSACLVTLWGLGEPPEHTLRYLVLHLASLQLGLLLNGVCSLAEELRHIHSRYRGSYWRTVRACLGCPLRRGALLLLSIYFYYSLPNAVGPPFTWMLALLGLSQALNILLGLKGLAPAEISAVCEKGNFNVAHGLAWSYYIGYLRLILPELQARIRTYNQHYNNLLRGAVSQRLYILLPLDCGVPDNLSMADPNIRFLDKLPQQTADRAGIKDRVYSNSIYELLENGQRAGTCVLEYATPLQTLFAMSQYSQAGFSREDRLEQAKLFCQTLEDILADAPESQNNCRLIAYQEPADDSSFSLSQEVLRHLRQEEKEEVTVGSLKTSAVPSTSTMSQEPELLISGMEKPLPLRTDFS
Human STING HAQ, sequence (Q86WV6 whole entry R71H/G230A/H232R/R293Q): as the sequence (Q86WV6 whole entry G230A/H232R/R293Q) above, with R71H counted along it
WT Human STING, sequence (Q86WV6 whole entry H232R): as the sequence (Q86WV6 whole entry G230A/H232R/R293Q) above, with A230G, Q293R counted along it
REF Human STING, sequence (Q86WV6 whole entry): as the sequence (Q86WV6 whole entry G230A/H232R/R293Q) above, with A230G, R232H, Q293R counted along it

Compound O=P1(S)OC[C@H]2O[C@@H]3[C@H](F)[C@@H]2OP(=O)(S)OC[C@H]2OC([C@H](F)[C@@H]2O1)n1cnc2c(ncnc21)NCC/C=C/CNc1ncnc2c1ncn23 (single isomer, unassigned) [Compound 8] has an EC50 (AQ Human STING; [7]) of 81 µM, an EC50 (Human STING HAQ; [8]) of 69.7 µM and an EC50 (REF Human STING) of over 100 µM. It also gave an EC50 (WT Human STING; Table 5) of 68.7 µM.
For O=P1(S)OC[C@H]2O[C@@H]3[C@H](F)[C@@H]2OP(=O)(S)OC[C@H]2OC([C@H](F)[C@@H]2O1)n1cnc2c(ncnc21)NCC/C=C/CNc1ncnc2c1ncn23 (single isomer, unassigned) [Compound 37], the EC50 (AQ Human STING; [7]) was 82.2 µM, the EC50 (Human STING HAQ; [8]) was 87.2 µM and the EC50 (WT Human STING; Table 5) was over 100 µM.
O=[P@]1(S)OC[C@H]2O[C@@H]3[C@H](F)[C@@H]2O[P@](=O)(S)OC[C@H]2O[C@H]([C@H](F)[C@@H]2O1)n1cnc2c(ncnc21)NC/C=C/CNc1ncnc2c1ncn23 [Compound 1a] was tested, and the “induction of primary human PBMC IFNβ protein production” value (human PBMC [1]) was “dose-dependent manner”, the “metabolites identified in hepatocyte incubations” value (from here on “metabolites identified”) [2] was “No apparent metabolite” and the “metabolites identified” value [3] was “No apparent metabolite”. The “metabolites identified” value (hepatocytes of human) was “No apparent metabolite”, the “metabolites identified” value [4] was “No apparent metabolite” and the “induction of IFNβ mRNA in primary PBMC” value (human PBMC [5]) was “dose- and time-dependent manner”. The “metabolites identified” value [6] was “No apparent metabolite” and the “anti-tumor effect on untreated tumors” value (CT26 tumor) was “tumor growth inhibition activity”.
O=[P@]1(S)OC[C@H]2OC3[C@H](F)[C@@H]2O[P@](=O)(S)OC[C@H]2O[C@H]([C@H](F)[C@@H]2O1)n1cnc2c(ncnc21)NCCCCNc1ncnc2c1ncn23 [Compound 6] was tested, and the EC50 (AQ Human STING; [7]) was 9 µM, the EC50 (Human STING HAQ; [8]) was 10.5 µM and the EC50 (REF Human STING) was 42 µM. The EC50 (WT Human STING; Table 5) was 5.7 µM.
Compound O=P1(O)OC[C@H]2O[C@@H]3[C@H](F)[C@@H]2OP(=O)(O)OC[C@H]2OC([C@H](F)[C@@H]2O1)n1cnc2c(ncnc21)NC/C=C/CNc1ncnc2c1ncn23 [Compound 9] has an EC50 (AQ Human STING; [7]) of 30.9 µM, an EC50 (Human STING HAQ; [8]) of 39.2 µM and an EC50 (REF Human STING) of 31.7 µM. It also gave an EC50 (WT Human STING; Table 5) of 18 µM.
For O=[P@@]1(S)OC[C@H]2OC3[C@H](O)[C@@H]2O[P@](=O)(S)OC[C@H]2O[C@H]([C@H](O1)[C@@H]2O)n1cnc2c(ncnc21)NC/C=C/CNc1ncnc2c1ncn23 [Compound 14], the EC50 (AQ Human STING; read-out: Human STING EC50 (μM) AQ, Table 4) was over 100 µM, the EC50 (Human STING HAQ; [9]) was 58.2 µM and the EC50 (REF Human STING; read-out: Human STING EC50 (μM) REF, Table 4, ammonium salt form of each compound) was over 100 µM. It also gave an EC50 (WT Human STING; Table 4) of 69.8 µM.
O=[P@]1(S)OC[C@H]2OC3[C@H](F)[C@@H]2O[P@](=O)(S)OC[C@H]2O[C@H]([C@H](O1)[C@@H]2O)n1cnc2c(ncnc21)NC/C=C/CNc1ncnc2c1ncn23 [Compound 15] was tested, and the EC50 (AQ Human STING; [10]) was 13.1 µM, the EC50 (Human STING HAQ; [9]) was 24.7 µM and the EC50 (REF Human STING) was 66.7 µM. For the same compound, the EC50 (WT Human STING; Table 4) was 11.6 µM.
O=[P@@]1(S)OC[C@H]2OC3[C@H](F)[C@@H]2O[P@](=O)(S)OC[C@H]2O[C@H]([C@H](O1)[C@@H]2O)n1cnc2c(ncnc21)NC/C=C/CNc1ncnc2c1ncn23 [Compound 16] was tested, and the EC50 (AQ Human STING; [10]) was 20.4 µM, the EC50 (Human STING HAQ; [9]) was 28.8 µM and the EC50 (REF Human STING) was 66.7 µM. For the same compound, the EC50 (WT Human STING; Table 4) was 25.7 µM.
Compound O=[P@]1(S)OC[C@H]2OC3[C@H](F)[C@@H]2O[P@](=O)(S)OC[C@H]2O[C@H]([C@H](F)[C@@H]2O1)n1cnc2c(ncnc21)NC[C@H](O)[C@@H](O)CNc1ncnc2c1ncn23 [Compound 32] has an EC50 (Human STING HAQ; [11]) of 15.7 µM and an EC50 (REF Human STING; read-out: hSTING EC50 (μM) REF, Table 6, ammonium salt form, except Compounds 26, 33, 34 tested as bis-TEA salts) of over 100 µM.
In the case of O=[P@]1(S)OC[C@H]2OC3[C@H](F)[C@@H]2O[P@](=O)(S)OC[C@H]2O[C@H]([C@H](F)[C@@H]2O1)n1cnc2c(ncnc21)CC/C=C/CCc1ncnc2c1ncn23 [Compound 33], the EC50 (Human STING HAQ; [11]) is reported as 21.5 µM.
For O=[P@@]1(S)OC[C@H]2O[C@@H]3[C@H](F)[C@@H]2O[P@](=O)(S)OC[C@H]2OC([C@H](F)[C@@H]2O1)n1cnc2c(ncnc21)CC/C=C/CCc1ncnc2c1ncn23 [Compound 34], the EC50 (Human STING HAQ; [11]) was 2.3 µM.
O=[P@]1(S)N[C@@H]2[C@H]3CO[P@](=O)(S)N[C@H]4[C@@H](O)[C@@H](O[C@@H]4CO1)n1cnc4c(ncnc41)NC/C=C/CNc1ncnc4c1ncn4C(O3)[C@@H]2O [Compound 38] showed an EC50 (Human STING HAQ; [12]) of 79.9 µM.
With O=P1(S)N[C@@H]2[C@H]3COP(=O)(S)N[C@H]4[C@@H](O)[C@@H](O[C@@H]4CO1)n1cnc4c(ncnc41)NC/C=C/CNc1ncnc4c1ncn4C(O3)[C@@H]2O (some centres unmarked) [Compound 39] the EC50 (Human STING HAQ; [12]) was 29.6 µM.
